Results as given in patent publication US20100056948A1, “Stimulation of Satiety Hormone Release” (priority 2008, published 2010).

Key:
[1] = system: segments of duodenum, jejunum ileum, colon, esophagus, stomach; test: GLP-1 release from segments of the entire GI tract incubated in linoleic acid; type: cell-based, rat; conditions: LA 3 mg/mL, 45 minutes (FIG. 2)
isolated ileum = test: Muscle tone of isolated ileum (force transducer); type: cell-based, rat; conditions: for Change in muscle tone of isolated ileum after 40 min compared to KRB buffer: P<0.05 by ANOVA
Description: (§1) Female Sprague-Dawley rats, 8-12 weeks weighing 250-300 g were euthanized by CO2 and at least 17 cm of distal ileum was immediately dissected starting at the ileocecal junction. Intraluminal contents were flushed with warm modified Krebs Ringers bicarbonate (KRB) buffer and intestines placed into 50 mL tubes containing oxygenated, cold KRB buffer. Intact segments (1.5 cm) of rat distal ileum were oriented longitudinally, with the oral end fixed in the organ chamber between bipolar stimulating electrodes and the aboral end attached to a solid-state force transducer and submerged in a 10 ml-chamber containing KRB at 37° C. and constantly aerated with 95% O2/5% CO2 (FIG. 1). […] The entire assembly was placed into 37° C. KRB buffer in jacketed 10 mL myobath chambers. The length of each segment was adjusted to an initial resting tension of 1 g and maintained at 37° C. in a KRB buffer or KRB containing linoleic acid (LA, 3 mg/mL) and a dipeptidyl peptidase-4 inhibitor (to prevent proteolysis of GLP-1). Contractile activity was digitized and data acquired for off line analysis using PowerLab hardware and Chart software (ADInstruments, Colorado Springs, Colo.). In separate experiments, segments were incubated in KRB or KRB+LA in the presence or absence of electrical field stimulation continuously for 45 min. Samples of the bathing solutions taken at 45 min and mucosal epithelial scrapings were stored frozen (minus 80° C.).
Muscle tone and contractile amplitude (calculated as the average cyclic minimum and maximum, respectively) were determined for 5 min periods, pre- (˜5 min before) and post-treatment (40 min after start). The tone and amplitude at −5 and +40 minutes for each condition was compared to that condition's baseline by one-way ANOVA.

[2] = system: rat distal ileum (L-cells); test: GLP-1 release from isolated rat distal ileum segments into the bathing medium (active GLP-1 ELISA), with or without electrical field stimulation; type: cell-based; conditions: for GLP-1 release, LA alone (mean ± SEM): LA 3 mg/mL 45 min, no E-stim
Description: as §1
Active GLP-1 concentration in thawed aliquots was measured by fluorescence on a plate reader using an ELISA (Linco Research, St. Charles, Mo.) with a detection range of 2-100 pM. This method measures both biologically active forms of GLP-1, that is GLP-1(7-36) and (GLP-1(7-36)) amide, that are currently known to be released by the intestinal mucosa. Measurements of GLP-1 were normalized to concentration in 10 mL volume and reported as pM. The mean and SEM GLP-1 release was calculated for each treatment. For each electrical stimulation condition (+/−LA) there were 2-6 rats with 2-4 segments of tissue per rat per condition.
Statistical analysis was performed that included all conditions (with condition defined by the combination of frequency, voltage and duration of the electrical stimulation) and included a term for condition, treatment (LA alone or LA plus electrical stimulation) as a repeated factor, and the interaction between the two. Treatment is a within-subject effect, allowing each subject's LA alone response to serve as the control for that subject's response with electrical stimulation from the same study day. GLP-1 release was analyzed by repeated measures analyses of variance (ANOVA) on all eleven conditions with LA alone or LA plus electrical stimulation as a repeated factor. The mean and SEM reported in the tables below are based on 2-6 rats per condition with data from two replicates of each electrical stimulation condition averaged per rat. The P values are reported based on repeated measures analyses of variance (ANOVA) for each analysis and for the pairwise comparisons. The data were log-transformed prior to analyses to better satisfy the underlying statistical modeling assumptions of equal variability and sampling from populations with normal distributions.

**Q.** Which “GLP-1 concentration in the bathing medium” value ([1]; segments of duodenum, jejunum ileum and colon) does the source give for `CCCCC/C=C\C/C=C\CCCCCCCC(=O)O` [LA, linoleic acid] here?
**A.** increased

**Q.** And the “GLP-1 concentration in the bathing medium” value ([1]; segments of esophagus or stomach)?
**A.** not

**Q.** And the “Change in muscle tone of isolated ileum after 40 min compared to KRB buffer” value (isolated ileum; LA combined with E-stim 14V 40 Hz 5 ms)?
**A.** significant reduction

**Q.** And the “Change in muscle tone of isolated ileum after 40 min compared to KRB buffer” value (isolated ileum; LA combined with E-stim 14 V 80 Hz 5 ms)?
**A.** significant reduction

**Q.** What about the “Muscle tone of isolated ileum compared to KRB buffer alone” value (isolated ileum; LA with E-stim 14V 0.4 Hz 300 ms) of the same compound?
**A.** not different

**Q.** And the “Muscle tone of isolated ileum compared to KRB buffer alone” value (isolated ileum; LA with E-stim 14V 20 Hz 5 ms)?
**A.** not different

**Q.** What about the “Change in muscle tone of isolated ileum after 40 min” value (isolated ileum; incubation in LA alone (FIG. 9)) of the same compound?
**A.** tended to decrease

**Q.** And the “GLP-1 release, LA alone (mean ± SEM)” value ([2]; paired control for 0.15 Hz 0.7 V 300 ms)?
**A.** 17.9 ± 4.1 pM

**Q.** And the “GLP-1 release, LA alone (mean ± SEM)” value ([2]; paired control for 0.15 Hz 2 V 5 ms)?
**A.** 12.1 ± 4.0 pM

**Q.** What about the “GLP-1 release, LA alone (mean ± SEM)” value ([2]; paired control for 0.15 Hz 5 V 5 ms) of the same compound?
**A.** 17.6 ± 5.9 pM

**Q.** And the “GLP-1 release, LA alone (mean ± SEM)” value ([2]; paired control for 0.15 Hz 10 V 5 ms)?
**A.** 19.5 ± 9.0 pM

**Q.** What about the “GLP-1 release, LA alone (mean ± SEM)” value ([2]; paired control for 0.15 Hz 20 V 5 ms) of the same compound?
**A.** 12.5 ± 1.7 pM

**Q.** And the “GLP-1 release, LA alone (mean ± SEM)” value ([2]; paired control for 0.4 Hz 14 V 5 ms)?
**A.** 11.0 ± 2.8 pM

**Q.** What about the “GLP-1 release, LA alone (mean ± SEM)” value ([2]; paired control for 0.4 Hz 14 V 300 ms) of the same compound?
**A.** 12.7 ± 2.4 pM

**Q.** And the “GLP-1 release, LA alone (mean ± SEM)” value ([2]; paired control for 4 Hz 14 V 5 ms)?
**A.** 8.6 ± 1.8 pM

**Q.** What about the “GLP-1 release, LA alone (mean ± SEM)” value ([2]; paired control for 20 Hz 14 V 5 ms) of the same compound?
**A.** 14.4 ± 5.9 pM

**Q.** What about the “GLP-1 release, LA alone (mean ± SEM)” value ([2]; paired control for 40 Hz 14 V 5 ms) of the same compound?
**A.** 10.2 ± 2.1 pM

**Q.** And the “GLP-1 release, LA alone (mean ± SEM)” value ([2]; paired control for 80 Hz 14 V 5 ms)?
**A.** 20.6 ± 3.4 pM

**Q.** And the “GLP-1 release, LA + E-stim (mean ± SEM)” value ([2]; LA 3 mg/mL 45 min plus electrical stimulation 0.15 Hz 0.7 V 300 ms, p 0.257 vs LA alone)?
**A.** 22.1 ± 4.2 pM

**Q.** And the “GLP-1 release, LA + E-stim (mean ± SEM)” value ([2]; LA 3 mg/mL 45 min plus electrical stimulation 0.15 Hz 2 V 5 ms, p 0.948 vs LA alone)?
**A.** 11.1 ± 1.0 pM

**Q.** What about the “GLP-1 release, LA + E-stim (mean ± SEM)” value ([2]; LA 3 mg/mL 45 min plus electrical stimulation 0.15 Hz 5 V 5 ms, p 0.344 vs LA alone) of the same compound?
**A.** 22.6 ± 9.4 pM

**Q.** And the “GLP-1 release, LA + E-stim (mean ± SEM)” value ([2]; LA 3 mg/mL 45 min plus electrical stimulation 0.15 Hz 10 V 5 ms, p 0.311 vs LA alone)?
**A.** 29.4 ± 6.6 pM

**Q.** And the “GLP-1 release, LA + E-stim (mean ± SEM)” value ([2]; LA 3 mg/mL 45 min plus electrical stimulation 0.15 Hz 20 V 5 ms, p 0.212 vs LA alone)?
**A.** 16.5 ± 3.7 pM

**Q.** What about the “GLP-1 release, LA + E-stim (mean ± SEM)” value ([2]; LA 3 mg/mL 45 min plus electrical stimulation 0.4 Hz 14 V 5 ms, p 0.761 vs LA alone) of the same compound?
**A.** 10.4 ± 1.8 pM

**Q.** And the “GLP-1 release, LA + E-stim (mean ± SEM)” value ([2]; LA 3 mg/mL 45 min plus electrical stimulation 0.4 Hz 14 V 300 ms, p 0.056 vs LA alone)?
**A.** 31.3 ± 5.9 pM

**Q.** And the “GLP-1 release, LA + E-stim (mean ± SEM)” value ([2]; LA 3 mg/mL 45 min plus electrical stimulation 4 Hz 14 V 5 ms, p 0.838 vs LA alone)?
**A.** 9.1 ± 1.4 pM

**Q.** What about the “GLP-1 release, LA + E-stim (mean ± SEM)” value ([2]; LA 3 mg/mL 45 min plus electrical stimulation 20 Hz 14 V 5 ms, p 0.152 vs LA alone) of the same compound?
**A.** 32.6 ± 12.2 pM

**Q.** And the “GLP-1 release, LA + E-stim (mean ± SEM)” value ([2]; LA 3 mg/mL 45 min plus electrical stimulation 40 Hz 14 V 5 ms, p 0.016 vs LA alone)?
**A.** 38.1 ± 11.1 pM

**Q.** What about the “GLP-1 release, LA + E-stim (mean ± SEM)” value ([2]; LA 3 mg/mL 45 min plus electrical stimulation 80 Hz 14 V 5 ms, p 0.391, includes one result designated 100 pM (upper level of detection, actual 178 pM)) of the same compound?
**A.** 33.7 ± 12.4 pM

**Q.** And the “LA-evoked increase of GLP-1 in the presence of TTX” value ([2]; TTX 0.5 μM concurrently with linoleic acid for 45 min (FIG. 7))?
**A.** persisted

**Q.** And the “GLP-1 released after 45 mins incubation in LA” value ([2]; compiled data from 51 distal ileum segments, LA 3 mg/mL, mean ± SEM, KRB buffer alone 3.6 pM)?
**A.** 21.9 ± 2.6 pM

**Q.** What about the “Enhancement of GLP-1 released during incubation with nutrient stimulus by E-stim compared to LA alone” value ([2]; four electrical stimulation conditions with total charge 1400, 1680, 2800 and 5600 μC) of the same compound?
**A.** 150-300%

**Q.** And the “Increase of GLP-1 release by electrical stimulation together with LA over that evoked by LA alone” value ([2]; in the presence of TTX 0.5 μM, E-stim 14V 0.4 Hz 300 ms, 45 min)?
**A.** 239±64%

**Q.** What about the “LA concentration giving maximal GLP-1 response” value ([2]; tissue incubated in 1, 3 and 10 mg/mL LA, data not shown) of the same compound?
**A.** 3 mg/mL

**Q.** What about the “GLP-1 concentration over time” value ([2]; two segments of ileum incubated in 3 mg/ml LA (FIG. 4)) of the same compound?
**A.** increased over time

**Q.** Which “Effect of TTX alone on GLP-1 release” value [2] does the source give for `NC1=N[C@H](O)[C@H]2[C@H]3O[C@]4(O)O[C@@H]([C@@H](O)[C@@]2(N1)[C@@H]4O)[C@]3(O)CO` [TTX, tetrodotoxin] here?
**A.** no effect

**Q.** What about the “Effect of tetrodotoxin on the two-fold increase in GLP-1 evoked by direct electrical stimulation of ileal tissue” value [2] of the same compound?
**A.** did not prevent
